Data as given in patent publication US7381429B2, “Extracts from sophora species, method for producing the same and their use” (Dr. Willmar Schwabe GmbH & Co., priority 2000, dated 2008).

Experiments:
[1] = biological target: T1, human α oestrogen receptor (Homo sapiens, UniProt P03372); assay: Reportergen assay for oestrogenic activity with transfected yeast cells; assay type: cell-based; settings: yeast cells expressing human α oestrogen receptor, β galactosidase reporter, 72 hours at 32° C.
T1 construct: expressed in transfected cells; host or cells: yeast cells (saccharomyces)
T1 sequence (P03372 1-595): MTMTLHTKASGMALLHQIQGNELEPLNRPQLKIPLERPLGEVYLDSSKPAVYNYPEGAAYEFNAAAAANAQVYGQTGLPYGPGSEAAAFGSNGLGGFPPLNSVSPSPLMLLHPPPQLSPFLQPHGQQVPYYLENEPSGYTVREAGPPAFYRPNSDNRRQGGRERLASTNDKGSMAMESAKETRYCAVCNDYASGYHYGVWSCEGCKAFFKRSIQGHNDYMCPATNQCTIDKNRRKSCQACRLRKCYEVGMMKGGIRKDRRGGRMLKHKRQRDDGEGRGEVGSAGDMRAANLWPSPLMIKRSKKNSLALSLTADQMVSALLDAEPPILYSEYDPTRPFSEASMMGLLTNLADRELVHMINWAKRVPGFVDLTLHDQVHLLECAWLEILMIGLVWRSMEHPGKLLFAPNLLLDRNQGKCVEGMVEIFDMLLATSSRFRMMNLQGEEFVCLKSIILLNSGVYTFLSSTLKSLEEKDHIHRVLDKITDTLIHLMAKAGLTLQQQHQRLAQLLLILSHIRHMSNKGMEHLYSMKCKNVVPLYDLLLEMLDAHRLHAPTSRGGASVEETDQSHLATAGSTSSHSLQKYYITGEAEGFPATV
Description: Testing the ethylacetate extracts produced for oestrogenic activity with transfected yeast cells, which express the human α oestrogen receptor.
The testing of extracts for oestrogenic properties was performed with a Reportergen assay, using yeast cells (saccharomyces). These cells are stable with the human α oestrogen receptor and an expression plasmid which contains an oestrogen response element and the gene for the enzyme β galactosidase. All samples were dissolved in DMSO at a concentration of 20 mg/ml, and were given undiluted or after diluting with DMSO at the ratio of 1/10, 1/100 or at a volume of 1 μl to 100 μl culture medium in 96-well flat-bottom micro-titre dishes. Next, 100 μl yeast suspension and the chromogenous substrate chlorophenolred-β-D-galactopyranoside were added. […] The yeast cells were incubated for 72 hours at 32° C., after which absorption of the medium was measured at 540 nm in a micro-titre dish photometer. The samples were sometimes checked twice.

Ishikawa-Var-I cells = settings: cited from earlier work
[2] = animal studies; cited from earlier work

Oc1ccc2c(c1)OC[C@H]1c3cc4c(cc3O[C@@H]21)OCO4 [maackiain]
oestrogenic activity in yeast assay [1]: relevant to the effectiveness of the extract

CC(C)=CCc1c(O)cc(O)c2c1O[C@H](c1ccc(O)cc1)CC2=O [8-prenylnaringenine]
oestrogenic effect compared with 17β oestradiol (Ishikawa-Var-I cells; versus 17β oestradiol): only a slightly weaker effect than 17β oestradiol | oestrogenic potency compared with known phyto-oestrogens (Ishikawa-Var-I cells; versus coumestrol, genistein or daidzein): significantly more active than the phyto-oestrogens known so far

O=C1CCC[C@@H]2[C@H]3CCC[N+]4([O-])CCC[C@@H](CN12)[C@@H]34 (some centres unmarked) [oxymatrine]
toxic effects [2]: toxic effects could be shown

OC[C@H]1O[C@@H](Oc2ccc3c(c2)OC[C@H]2c4cc5c(cc4O[C@@H]32)OCO5)[C@H](O)[C@@H](O)[C@@H]1O [maackiain glucoside]
oestrogenic activity in yeast assay [1]: relevant to the effectiveness of the extract
